Results on 85 compounds are retold here after PubChem BioAssay AID489033 (Sanford-Burnham Center for Chemical Genomics, 2010).

Active and inactive are the calls of the source. No rule for the calls is given here.

The assay has as its system 697B B-cell line, NF-kB luciferase reporter luminescence. The assay is described as follows: inhibitors of B-cell NF-kB luciferase signal – 697B cells, luminescence, selectivity assay for T-cell antigen receptor NF-kB inhibitors, dose response (AID 489033).

Usually IC50 stands for the concentration that gives 50% inhibition.

With `CC1CCCN(c2ncnc3c2cnn3-c2ccc(Cl)cc2)C1` (stereo not given), the IC50 was under 0.16 µM. With `CCc1ccc(/C=N/NC(=O)c2cc(-c3ccncc3)nc3ccccc23)s1`, the IC50 is 4.09 µM.

With `CCOC(=O)CC1CCCCN1C(=O)c1cc(COc2cccc3cnccc23)on1` (stereo not given), the IC50 was > 80 µM (inactive).

In the case of `C=CCn1c(SCc2c(C)noc2C)nc2ccccc2c1=O`, the IC50 was > 80 µM (inactive). As to `CCc1ccc(S(=O)(=O)/N=C2\C=C(Nc3ccc(O)cc3)C(=O)c3ccccc32)cc1`, the IC50 is 5.19 µM. Under `CSc1nccc(-c2nn(-c3ccc(C)cc3)ccc2=O)n1` stands > 80 µM (inactive); under `CCCCn1c2c(c(=N)c3c1CCC3)CCC2`, > 80 µM (inactive); under `Cc1ccc(-c2nc(-c3ccccn3)no2)cc1`, 3.78 µM. Under `CCN(CC)c1ccc(/C=C/c2ccc3ccc(OC)cc3[n+]2CC)cc1` stands 2.84 µM; under `CCN1/C(=C/c2ccc3ccccc3[n+]2CC)C=Cc2ccccc21`, 3.57 µM; under `COc1ccc(/C=C/C(=O)c2cc(F)ccc2OC(=O)c2ccccc2)cc1OC`, > 80 µM (inactive). As for `COc1cc(CC(=O)OCC(=O)c2ccc3c(c2)OCCO3)cc(OC)c1OC`, the figure is > 80 µM (inactive). In the case of `COC(=O)c1[nH]c2ccc(F)cc2c1NS(=O)(=O)c1ccc(OC)cc1`, the IC50 was > 80 µM (inactive). As for `O=[N+]([O-])c1ccc(-c2nc(C(Cl)Cl)c3ccccc3n2)cc1`, the figure is 1.6 µM. Under `O=S1(=O)Nc2c(ccc3cccnc23)-c2ccccc21` stands 0.54 µM; under `CCOCCCNC(=O)c1ccc2c(c1)N=C(CC)c1cc(Br)ccc1S2`, > 80 µM (inactive). As for `O=C(N/N=C\c1c(O)ccc2ccccc12)c1ccc(S(=O)(=O)N2CCCCC2)cc1`, the figure is > 80 µM (inactive); as for `CCOc1ccccc1NS(=O)(=O)c1ccc(-c2cnc(C3CC3)o2)cc1`, > 80 µM (inactive); as for `CN=c1scc(-c2cccs2)n1/N=C/c1ccccc1O`, 1.33 µM. Take `Cn1nc(CC(=O)Nc2ccc(N3CCN(C(=O)OC(C)(C)C)CC3)cc2)c2ccccc2c1=O`: the IC50 is > 80 µM (inactive). Turning to `CCCCS(=O)(=O)/C=C\C=C/S(=O)(=O)CCCC`, the IC50 was 3.51 µM. Turning to `O=C(NN=Cc1c(O)ccc2ccccc12)c1ccc2c(c1)OCO2`, the IC50 was > 80 µM (inactive). As for `CCOc1ccc(S(=O)(=O)NCc2ccccn2)cc1NC(=O)c1ccccc1F`, the figure is > 80 µM (inactive). As for `C=CCSc1nc2ccccc2n1C(=O)/C=C/c1cc(OC)c(OC)c(OC)c1`, the figure is > 80 µM (inactive); as for `Cc1cc(NC(=O)CSc2nc3ccccc3c(=O)n2C2CCCC2)no1`, > 80 µM (inactive). As for `Cc1noc(C)c1COc1ccc(CC(=O)NCc2ccccc2)cc1`, the figure is > 80 µM (inactive); as for `COc1cc(/C=C2/SC(=Nc3ccc(O)cc3)NC2=O)ccc1O`, 23.4 µM (inactive); as for `COc1ccc(/C=C2/C(=O)OCc3cc(OC)c(OC)cc32)cc1`, > 80 µM (inactive). With `COc1cccc(N/C(N)=N/c2nc(CSc3ccccn3)cc(=O)[nH]2)c1`, the IC50 was > 80 µM (inactive).

Take `O=C1/C(=C/c2ccc(N3CCOCC3)o2)SC(=Nc2ccccc2)N1CCc1c[nH]c2ccccc12`: the IC50 is 12.8 µM. Consider `COc1ccccc1NC(=O)C1=C(C)Nc2nc3ccccc3n2C1c1cccs1` (stereo not given), for which the IC50 was > 80 µM (inactive). Under `Cc1ccc(C)c(CSc2nc3[nH]ncc3c(=O)[nH]2)c1` stands 15.7 µM.

Regarding `C(=N\Nc1nc2ccccc2s1)/c1ccccn1`, the IC50 is 0.39 µM. As for `CCN(c1ccccc1)S(=O)(=O)c1ccc(C(=O)NC2CCN(Cc3ccccc3)CC2)cc1`, the figure is > 80 µM (inactive); as for `O=C(c1ccc(CS(=O)c2ccccc2Cl)o1)N1CCN(c2ccccn2)CC1` (stereo not given), > 80 µM (inactive); as for `Cc1ccc(C(=O)c2cc([N+](=O)[O-])ccc2N2CCCCC2)cc1`, > 80 µM (inactive). For the compound `CCCCCCCCCn1c2c(c(=N)c3c1CCC3)CCC2`, the IC50 was 10.7 µM. As for `CCCCOc1ccc(Br)cc1/C(C)=N/NC1=NCCN1`, the figure is 28.6 µM (inactive); as for `Cc1cc(-c2ccc(C)c(S(=O)(=O)N3CCN(c4ccc([N+](=O)[O-])cc4)CC3)c2)on1`, > 80 µM (inactive). As for `CCc1cc2c(=O)nc3n(c2s1)Cc1ccccc1/C3=C(/O)c1cccc([N+](=O)[O-])c1`, the figure is > 80 µM (inactive); as for `N=c1ccn(CC(=O)c2ccc(-c3ccccc3)cc2)cc1`, 19.2 µM; as for `CC(Oc1ccc(Cl)cc1Cl)c1nc(-c2ccc(NC(=O)c3ccncc3)cc2)no1` (stereo not given), 29.5 µM (inactive). Turning to `CCOc1ccc(S(=O)(=O)NCc2ccccn2)cc1NC(=O)c1ccccc1`, the IC50 was > 80 µM (inactive). Regarding `CCCCCc1ccc(OCCCC[n+]2ccc(C)cc2)c(CCCCC)c1`, the IC50 is 4.21 µM. Under `CCC/C(O)=C1\C(=O)CC(C)(C)CC1=Nc1ccc(OC)cc1OC` stands > 80 µM (inactive).

As to `C=C(C=O)C[C@@H]1C[C@H](O)C2OC3C[C@]4(C)OC5/C=C\CC6OC7C(CC=CCC6OC5CCCC4OC3CC2O1)OC1CC2OC3CC(=O)OC3C[C@@H](C)C[C@@]2(C)OC1C[C@@H]7C` (stereo not given in full), the IC50 was 1.02 µM. As for `COC(=O)c1cnc(Oc2ccc(NC(=O)NC(=O)c3c(F)cccc3Cl)cc2)cc1C(F)(F)F`, the figure is > 80 µM (inactive). As for `COc1cc2c(c(OC)c1OC)-c1ccc(O)cc1[C@@H](NC(C)=O)CC2`, the figure is > 80 µM (inactive); as for `C=CCn1c(C)cc(C2=NNC(=NCC)SC2)c1C`, under 0.16 µM. Under `COc1ccc(C(C(=O)NC2CCCCC2)N(C(=O)CCl)c2ccc(C)cc2)cc1` (stereo not given) stands under 0.16 µM; under `COc1ccccc1N1CCN(C(=O)c2cc(=O)c3cc(C)cc(C)c3o2)CC1`, > 80 µM (inactive). As for `Cc1ccc(-c2cc(C(F)F)n3ncc(C(=O)N4CCc5ccccc54)c3n2)cc1`, the IC50 was > 80 µM (inactive).

Turning to `COc1ccc([N+](=O)[O-])cc1Nc1c2ccccc2nc2ccccc12`, the IC50 was > 80 µM (inactive). Consider `COc1cc2c(cc1O)CC[C@@H]1[C@@H]2CC[C@]2(C)[C@@H](O)CC[C@@H]12`, for which the IC50 is > 80 µM (inactive). As for `O=C1CC(c2cccc(Br)c2)c2cc3c(cc2N1)CCC3` (stereo not given), the figure is 30.7 µM (inactive). As for `CC1(C)CC(N2CCN(C(c3ccccc3)c3ccccc3)CC2)=CC(=[N+]2CCCCC2)C1`, the figure is 1.64 µM; as for `Cc1csc2sc(-c3ccnc(SCC(=O)NCc4ccccc4)n3)c(C)c12`, > 80 µM (inactive); as for `COc1ccc(C(=O)Nc2ccc3[nH]c(-c4cccc(OC)c4)cc(=O)c3c2)cc1`, > 80 µM (inactive). Under `Cc1cc(C)nc(SCC(=O)Nc2ccnc3ccccc23)n1` stands > 80 µM (inactive).

Take `C[C@]12CC[C@H](O)C[C@H]1CC[C@@H]1[C@@H]2C[C@@H](O)[C@]2(C)[C@@H](C3=CC(=O)OC3)CC[C@]12O`: the IC50 is 1.6 µM.

`C=C1C(=O)C=C2CN(C(=O)c3ccccc3)[C@@](Cc3ccc(F)cc3)(C(=O)OC)[C@@H]12`: the IC50 was 1.01 µM. Consider `COc1cccc(/C=N/Nc2ccc(C(=O)O)cc2)c1O`, for which the IC50 is 0.83 µM. Regarding `O=S(=O)(c1cc(F)ccc1F)N1CCN(c2ncnc3ccccc23)CC1`, the IC50 was 74.1 µM (inactive).

On to `COc1ccc(NC(=O)/C(Cl)=C(/Cl)S(=O)Cc2ccc(Cl)cc2)cn1` (stereo not given), for which the IC50 was 0.18 µM. In the case of `Cc1c(C(=O)N/N=C/c2c(O)ccc3ccccc23)nnn1-c1nonc1N`, the IC50 was 34.7 µM (inactive). Under `Cc1ccc(C(=O)Nc2cc3ccccc3oc2=O)cc1` stands 2.11 µM; under `COC(=O)Cc1[nH]n(-c2nc3ccccc3s2)c(=O)c1C(C)=Nc1ccc(OC)cc1`, 4.93 µM. As for `C#CC[N+](C)(C)CCCCCCCCCCCC`, the figure is 2.56 µM; as for `COc1ccc(OCC(=O)Nc2ccccc2N2CCCCC2)cc1`, > 80 µM (inactive).

Turning to `Nc1nc2n[nH]nc2c(=O)[nH]1`, the IC50 is 2.56 µM.

Regarding `CCOc1ccc(N(C)S(=O)(=O)c2ccc(-c3cc(C)no3)s2)cc1`, the IC50 was > 80 µM (inactive).

On to `COc1ccc(Cn2c(SCc3ccc(C)cc3)nc3cc(OC)c(OC)cc3c2=N)cc1Cl`, for which the IC50 was 4.8 µM. Under `C/C=C(\C)C(=O)N[C@@H](c1ccccc1)[C@@H](O)C(=O)O[C@H]1C[C@@]2(O)[C@@H](OC(=O)c3ccccc3)C3[C@](C)(C(=O)[C@H](OC(C)=O)C(=C1C)C2(C)C)[C@H](O)C[C@H]1OC[C@@]31OC(C)=O` (stereo not given in full) stands > 80 µM (inactive).

Turning to `O=C(c1cc(-c2ccncc2)nc2c(Cl)cccc12)N1CCN(c2ccccc2F)CC1`, the IC50 is > 80 µM (inactive). As for `CC[C@]1(O)CC2CN(CCc3c([nH]c4ccccc34)[C@@](C(=O)OC)(c3cc4c(cc3OC)N(C=O)[C@H]3[C@@](O)(C(=O)OC)[C@H](OC(C)=O)[C@]5(CC)C=CCN6CC[C@]43[C@@H]65)C2)C1` (stereo not given in full), the figure is > 80 µM (inactive); as for `COC(=O)C[C@]1(C(=O)OC)CN(C#N)N(c2ccc(Cl)cc2)C12c1ccccc1-c1ccccc12`, 4.43 µM.

As for `CCCCCCCOc1ccc(OC(=O)c2cccnc2)cc1`, the IC50 was > 80 µM (inactive).

With `COc1ccc(/C=N/NC(=O)c2[nH]c3ccc(Br)cc3c2-c2ccccc2)cc1`, the IC50 is > 80 µM (inactive). As for `COCCn1c(C)cc(C2=NNC(=Nc3ccccc3F)SC2)c1C`, the figure is 20.7 µM (inactive).

For the compound `CSC1=NC(C(Cl)(Cl)Cl)N=C(c2ccc(C)cc2)N1` (stereo not given), the IC50 was > 80 µM (inactive). In the case of `Cc1ccc(Nc2nc(-c3c(C)nc4ccccn34)cs2)cc1`, the IC50 is > 80 µM (inactive). For `O=C(CNC(=O)c1ccco1)N=Nc1c(O)n(CCc2ccccc2)c2ccccc12`, the IC50 was > 80 µM (inactive).

Turning to `COc1cc2nc(NC(=O)c3ccco3)sc(=O)c2cc1OC`, the concentration for half-maximal inhibition (IC50) was 0.67 µM. As for `CCOC(=O)CSC1=C(C#N)C(c2ccc(C)s2)CC(=O)N1` (stereo not given), the figure is > 80 µM (inactive); as for `Cc1nnc(N/N=C/c2ccccn2)[nH]c1=O`, 1.45 µM.
